Source: ChEMBL document CHEMBL3217563, “Second generation analogues of RKA182: synthetic tetraoxanes with outstanding in vitro and in vivo antimalarial activities” (Medchemcomm, 2011)

Experiments:
[1] = Metabolic stability in human liver microsomes assessed as compound remaining at 10 ug/ml after 10 mins by LC/MS/MS analysis relative to control; format: ADME; conditions: read-out: Stability
[2] = Metabolic stability in human liver microsomes assessed as compound remaining at 10 ug/ml after 60 mins by LC/MS/MS analysis relative to control; format: ADME; conditions: read-out: Stability
Plasmodium falciparum [3] = experiment: Antiplasmodial activity against Plasmodium falciparum 3D7 infected in human erythrocytes assessed as [3H]hypoxanthine incorporation after 48 hrs by betaplate liquid scintillation counting analysis; format: functional, organism-based
Plasmodium falciparum [4] = experiment: Antiplasmodial activity against chloroquine-resistant Plasmodium falciparum K1 infected in human erythrocytes assessed as [3H]hypoxanthine incorporation after 48 hrs by betaplate liquid scintillation counting analysis; format: functional, organism-based
[5] = Metabolic stability in human liver microsomes assessed as compound remaining at 10 ug/ml after 30 mins by LC/MS/MS analysis relative to control; format: ADME; conditions: read-out: Stability
Plasmodium berghei = experiment: Antimalarial activity against Plasmodium berghei ANKA infected in mouse assessed as suppression of parasitaemia at 30 mg/kg, po administered for 3 days measured on day 4 relative to control; format: functional
Mus musculus = experiment: Antimalarial activity against Plasmodium berghei ANKA infected in po dosed mouse assessed as suppression of parasitaemia administered for 3 days measured on day 4 relative to control; format: functional
Plasmodium falciparum [6] = experiment: Selectivity ratio of IC50 for Plasmodium falciparum 3D7 infected in human erythrocytes to IC50 for Plasmodium falciparum K1 infected in human erythrocytes; format: functional

| SMILES | IC50 (Plasmodium falciparum [3]; Plasmodium falciparum, 3D7) | IC50 (Plasmodium falciparum [4]) | Activity (Plasmodium berghei) | other results |
| --- | --- | --- | --- | --- |
| CN1CCN(C2CCN(C(=O)CC3CCC4(CC3)OOC3(OO4)C4CC5CC(C4)CC3C5)CC2)CC1 (stereo not drawn) | 0.819 nM | 1.12 nM | – | remaining at 10 min, 10 ug/ml [1]: 62.9%; remaining at 1 h, 10 ug/ml [2]: 39.5%; remaining at 0.5 h, 10 ug/ml [5]: 40.6% |
| CC(C)(C)OC(=O)NC1CCN(C2CCC3(CC2)OOC2(OO3)C3CC4CC(C3)CC2C4)CC1 (stereo not drawn) | 1 nM | – | – | – |
| FC1(F)CCN(C2CCC3(CC2)OOC2(OO3)C3CC4CC(C3)CC2C4)CC1 (stereo not drawn) | 0.6 nM | 1.3 nM | 99.8% | ED50 (Mus musculus): 9.4 mg/kg; ED90 (Mus musculus): 34 mg/kg |
| C1CC(NC2CCC3(CC2)OOC2(OO3)C3CC4CC(C3)CC2C4)CCO1 (stereo not drawn) | 0.7 nM | 0.4 nM | – | ED50 (Mus musculus): 2.8 mg/kg; ED90 (Mus musculus): 18 mg/kg |
| O=S1(=O)CC[N+]([O-])(C2CCC3(CC2)OOC2(OO3)C3CC4CC(C3)CC2C4)CC1 (stereo not drawn) | 3.7 nM | 2.5 nM | – | – |
| C1CCN(C2CCC3(CC2)OOC2(OO3)C3CC4CC(C3)CC2C4)CC1 (stereo not drawn) | 0.6 nM | 0.4 nM | – | – |
| O=C1CN(C2CCC3(CC2)OOC2(OO3)C3CC4CC(C3)CC2C4)CCN1 (stereo not drawn) | 3.5 nM | – | 98.8% | – |
| C[C@H]1[C@H](OC(=O)CCC(=O)O)O[C@@H]2O[C@@]3(C)CC[C@H]4[C@H](C)CC[C@@H]1[C@@]24OO3 [ARTESUNATE] | – | 4.9 nM | 99.6% | ED50 (Mus musculus): 2.8 mg/kg; ED90 (Mus musculus): 18 mg/kg |
| C1CC(NC2CCC3(CC2)OOC2(OO3)C3CC4CC(C3)CC2C4)CCO1.Cl (stereo not drawn) | – | – | – | IC50 (Plasmodium falciparum [3]): 1 nM; ED50 (Mus musculus): 2.3 mg/kg; ED90 (Mus musculus): 11 mg/kg |
| C1CCC(NC2CCC3(CC2)OOC2(OO3)C3CC4CC(C3)CC2C4)CC1 (stereo not drawn) | 0.4 nM | 0.2 nM | – | Ratio IC50 (Plasmodium falciparum [6]): 25 |
| C1CCN(C2CCN(C3CCC4(CC3)OOC3(OO4)C4CC5CC(C4)CC3C5)CC2)CC1 (stereo not drawn) | 2.4 nM | 0.2 nM | 99.7% | Ratio IC50 (Plasmodium falciparum [6]): 25 |
| NC1CCN(C2CCC3(CC2)OOC2(OO3)C3CC4CC(C3)CC2C4)CC1 (stereo not drawn) | – | 1.2 nM | – | remaining at 10 min, 10 ug/ml [1]: 86.7%; remaining at 1 h, 10 ug/ml [2]: 57.4%; IC50 (Plasmodium falciparum [3]): 1.2 nM; remaining at 0.5 h, 10 ug/ml [5]: 73.6% |
| CN1CCC(NC2CCC3(CC2)OOC2(OO3)C3CC4CC(C3)CC2C4)CC1 (stereo not drawn) | 0.4 nM | 1.1 nM | 99.2% | – |
| C1C2CC3CC1CC(C2)C31OOC2(CCC(NC3CC3)CC2)OO1 (stereo not drawn) | 1.5 nM | – | 99.7% | – |
| C1CCN(C2CCC3(CC2)OOC2(OO3)C3CC4CC(C3)CC2C4)C1 (stereo not drawn) | 0.7 nM | 1 nM | 99.8% | – |
| C1CN(C2CCC3(CC2)OOC2(OO3)C3CC4CC(C3)CC2C4)CCO1 (stereo not drawn) | 0.4 nM | 0.4 nM | – | – |
| Cc1ccc(S(=O)(=O)O)cc1.NC1CCN(C2CCC3(CC2)OOC2(OO3)C3CC4CC(C3)CC2C4)CC1 (stereo not drawn) | – | – | 99.9% | IC50 (Plasmodium falciparum [3]): 2.5 nM; ED50 (Mus musculus): 3.7 mg/kg; ED90 (Mus musculus): 10 mg/kg |
| FC1(F)CCC(NC2CCC3(CC2)OOC2(OO3)C3CC4CC(C3)CC2C4)CC1 (stereo not drawn) | 0.4 nM | 0.9 nM | – | – |
| CC(C)(C)NC1CCC2(CC1)OOC1(OO2)C2CC3CC(C2)CC1C3 (stereo not drawn) | 1.3 nM | – | 98.7% | – |
